According to patent US10781184B2, “Substituted benzazinones as antibacterial compounds” (GlaxoSmithKline Intellectual Property Development Limited, priority 2015, dated 2020):
Values after ≈ are worked out from the molar mass of the structure shown. Where a name gives a salt, the structure may show the parent alone. Read-outs that look alike come from different tables or passages of the source.

What was measured:
Assay in all cases: Minimum Inhibitory Concentration Assay (broth microdilution, CLSI)
Type in all cases: cell-based
P. aeruginosa PA01 = settings: Pseudomonas aeruginosa
Method: (§1) Methods for dilution Antimicrobial Susceptibility TestS for Bacteria that Grow Aerobically; Approved Standard-Ninth Edition; M7-A9, Vol. 32 No. 2, Clinical and Laboratory Standards Institute, Wayne, Pa.; January 2012.
(§2) Performance Standards for Antimicrobial Susceptibility Testing; Twenty-Second Informational Supplement; M100-S22 Vol. 32 No. 3; Clinical and Laboratory Standards Institute, Wayne, Pa., January 2012.
(§3) Broth microdilution was performed in accordance with the CLSI recommended procedures for aerobic bacteria [CLSI, 2012].
(§4) Comparator compound stock solutions were prepared as recommended by CLSI [CLSI, 2012]. The stock solutions of novel GSK compounds were prepared at 512 mcg/mL by dissolving the compounds in dimethyl sulfoxide (DMSO) and diluting 1:10 with sterile water. The 512 mcg/mL stock was further serially diluted in the recommended broth media for the organisms being tested. Final DMSO concentration in test wells was less than 1%.
(§5) Microtitre plates were prepared using the Microlab STAR™ (Hamilton Co., Reno, Nev.) to add media (50 μL) and the Microlab AT Plus system (Hamilton Co., Reno, Nev.) to serially dilute the compounds (final concentration range 0.125 to 128 mcg/mL) and to add inoculum. A positive growth control well containing medium and the test isolate was included on each microtitre plate. Ten microliters of the test medium from the positive growth control well was plated to determine the purity of each test isolate. A microtitre mirror reader (Cooke Instruments, Ltd., England) was used to assist in determining the microdilution MIC endpoints. The MIC was determined as the lowest concentration of compound that inhibited visible growth of the organism.

E. coli 7623 = tested on: E. coli 7623
Method: as §1, §2, §3, §4, §5

K. pneumoniae 1161486 = tested on: K. pneumoniae 1161486
Method: as §1, §2, §3, §4, §5

[1] = strain PA01, broth microdilution, read-out: P. aeruginosa PA01 MIC
[2] = Escherichia coli, strain 7623, broth microdilution, read-out: E. coli 7623 MIC
[3] = Klebsiella pneumoniae, strain 1161486, broth microdilution, read-out: K. pneumoniae 1161486 MIC
[4] = PA01, read-out: P. aeruginosa PA01 MIC (ug/mL)
[5] = Escherichia coli, 7623, read-out: E. coli 7623 MIC (ug/mL)
[6] = Klebsiella pneumoniae, 1161486, read-out: K. pneumoniae 1161486 MIC (ug/mL)

| Structure (SMILES) | MIC (P. aeruginosa PA01; [1]) [µg/mL] | MIC (E. coli 7623; [2]) [µg/mL] | MIC (K. pneumoniae 1161486; [3]) [µg/mL] | MIC (P. aeruginosa PA01; [4]) [µg/mL] | MIC (E. coli 7623; [5]) [µg/mL] | MIC (K. pneumoniae 1161486; [6]) [µg/mL] |
| --- | --- | --- | --- | --- | --- | --- |
| C[C@@](CCn1cnc2cc(-c3ccc(CCN4CCOCC4)cc3)c(F)cc2c1=O)(C(=O)NO)S(C)(=O)=O [Example 21, (2R)-4-(6-fluoro-7-{4-[2-(morpholin-4-yl)ethyl]phenyl}-4-oxo-3,4-dihydroquinazolin-3-yl)-N-hydroxy-2-methanesulfonyl-2-methylbutanamide] | 4 (≈ 7.32 µM) | 0.063 (≈ 0.115 µM) | 0.5 (≈ 0.915 µM) |  |  |  |
| COc1ccc(-c2cc3ncn(CC[C@](C)(C(=O)NO)S(C)(=O)=O)c(=O)c3cc2F)cn1 [Example 30, (2R)-4-[6-fluoro-7-(6-methoxypyridin-3-yl)-4-oxo-3,4-dihydroquinazolin-3-yl]-N-hydroxy-2-methanesulfonyl-2-methylbutanamide] | 16 (≈ 34.4 µM) | 0.25 (≈ 0.538 µM) | 1 (≈ 2.15 µM) |  |  |  |
| C[C@@](CCn1cnc2cc(-c3ccc(CN4CCOCC4)cc3)c(F)cc2c1=O)(C(=O)NO)S(C)(=O)=O [Example 20, (R)-4-(6-fluoro-7-(4-(morpholinomethyl)phenyl)-4-oxoquinazolin-3(4H)-yl)-N-hydroxy-2-methyl-2-(methylsulfonyl)butanamide hydrochloride] |  |  |  | 4 | 0.125 | 0.25 |
| C[C@@](CCn1cnc2cc(-c3ccc(CCO)cc3F)ccc2c1=O)(C(=O)NO)S(C)(=O)=O [Example 45, (2R)-4-{7-[2-fluoro-4-(2-hydroxyethyl)phenyl]-4-oxo-3,4-dihydroquinazolin-3-yl}-N-hydroxy-2-methanesulfonyl-2-methylbutanamide] | 1 (≈ 2.09 µM) | 0.063 (≈ 0.132 µM) | 1 (≈ 2.09 µM) |  |  |  |
| CN(C)Cc1ccc(-c2ccc3c(=O)n(CC[C@](C)(C(=O)NO)S(C)(=O)=O)cc(F)c3c2)cc1 [Example 85, (2R)-4-(6-{4-[(dimethylamino)methyl]phenyl}-4-fluoro-1-oxo-1,2-dihydroisoquinolin-2-yl)-N-hydroxy-2-methanesulfonyl-2-methylbutanamide] | 4 (≈ 8.17 µM) | 0.5 (≈ 1.02 µM) | 1 (≈ 2.04 µM) |  |  |  |
| C[C@@](CCn1cnc2cc(-c3ccc(C(F)F)cc3)ccc2c1=O)(C(=O)NO)S(C)(=O)=O [Example 10, (R)-4-(7-(4-(difluoromethyl)phenyl)-4-oxoquinazolin-3(4H)-yl)-N-hydroxy-2-methyl-2-(methylsulfonyl)butanamide] | 1 (≈ 2.15 µM) | 0.06 (≈ 0.129 µM) | 0.25 (≈ 0.537 µM) |  |  |  |
| COCCc1ccc(-c2ccc3c(=O)n(CC[C@](C)(C(=O)NO)S(C)(=O)=O)cnc3c2)c(F)c1 [Example 48, (2R)-4-{7-[2-fluoro-4-(2-methoxyethyl)phenyl]-4-oxo-3,4-dihydroquinazolin-3-yl}-N-hydroxy-2-methanesulfonyl-2-methylbutanamide] | 1 (≈ 2.03 µM) | < 0.03 | 0.125 (≈ 0.254 µM) |  |  |  |
| C[C@@](CCn1ccc2cc(-c3ccc(CN4CCCC4=O)cc3)ccc2c1=O)(C(=O)NO)S(C)(=O)=O [Example 81, (2R)—N-hydroxy-2-methanesulfonyl-2-methyl-4-(1-oxo-6-{4-[(2-oxopyrrolidin-1-yl)methyl]phenyl}-1,2-dihydroisoquinolin-2-yl)butanamide] | 1 (≈ 1.95 µM) | 0.25 (≈ 0.489 µM) | 0.5 (≈ 0.977 µM) |  |  |  |
| Cc1cnc(-c2ccc3c(=O)n(CC[C@](C)(C(=O)NO)S(C)(=O)=O)ccc3c2)s1 [Example 58, (2R)—N-hydroxy-2-methanesulfonyl-2-methyl-4-[6-(5-methyl-1,3-thiazol-2-yl)-1-oxo-1,2-dihydroisoquinolin-2-yl]butanamide] | 4 (≈ 9.18 µM) | 0.063 (≈ 0.145 µM) | 1 (≈ 2.3 µM) |  |  |  |
| CN(CCO)Cc1ccc(-c2ccc3c(=O)n(CC[C@](C)(C(=O)NO)S(C)(=O)=O)ccc3c2)c(F)c1.O=C(O)C(F)(F)F [Example 74, (2R)-4-[6-(2-fluoro-4-{[(2-hydroxyethyl)(methyl)amino]methyl}phenyl)-1-oxo-1,2-dihydroisoquinolin-2-yl]-N-hydroxy-2-methanesulfonyl-2-methylbutanamide] | 1 | 0.25 | 0.5 |  |  |  |
| C[C@@](CCn1cnc2cc(-c3ccc(CNC4CC4)cc3F)ccc2c1=O)(C(=O)NO)S(C)(=O)=O [Example 41, (2R)-4-(7-{4-[(cyclopropylamino)methyl]-2-fluorophenyl}-4-oxo-3,4-dihydroquinazolin-3-yl)-N-hydroxy-2-methanesulfonyl-2-methylbutanamide] | 2 (≈ 3.98 µM) | 0.125 (≈ 0.249 µM) | 2 (≈ 3.98 µM) |  |  |  |
| C[C@@](CCn1ccc2cc(-c3ccc(CNC4CC4)cc3F)ccc2c1=O)(C(=O)NO)S(C)(=O)=O [Example 76, (2R)-4-(6-{4-[(cyclopropylamino)methyl]-2-fluorophenyl}-1-oxo-1,2-dihydroisoquinolin-2-yl)-N-hydroxy-2-methanesulfonyl-2-methylbutanamide] | 0.5 (≈ 0.997 µM) | < 0.03 | 0.125 (≈ 0.249 µM) |  |  |  |
| COC1CN(CCc2ccc(-c3cc4ncn(CC[C@](C)(C(=O)NO)S(C)(=O)=O)c(=O)c4cc3F)c(F)c2F)C1 [Example 24, (2R)-4-(7-{2,3-difluoro-4-[2-(3-methoxyazetidin-1-yl)ethyl]phenyl}-6-fluoro-4-oxo-3,4-dihydroquinazolin-3-yl)-N-hydroxy-2-methanesulfonyl-2-methylbutanamide] | 2 (≈ 3.43 µM) | 0.25 (≈ 0.429 µM) | 1 (≈ 1.72 µM) |  |  |  |
| CCONCc1ccc(-c2ccc3c(=O)n(CC[C@](C)(C(=O)NO)S(C)(=O)=O)cnc3c2)c(F)c1 [Example 51, (2R)-4-(7-{4-[(ethoxyamino)methyl]-2-fluorophenyl}-4-oxo-3,4-dihydroquinazolin-3-yl)-N-hydroxy-2-methanesulfonyl-2-methylbutanamide] | 2 (≈ 3.95 µM) | 0.125 (≈ 0.247 µM) | 0.5 (≈ 0.987 µM) |  |  |  |
| C[C@@](CCN1CCc2cc(-c3ccc(CN4CCOCC4)cc3)ccc2C1=O)(C(=O)NO)S(C)(=O)=O [Example 92, (2R)—N-hydroxy-2-methanesulfonyl-2-methyl-4-(6-{4-[(morpholin-4-yl)methyl]phenyl}-1-oxo-1,2,3,4-tetrahydroisoquinolin-2-yl)butanamide] | 4 (≈ 7.76 µM) | 0.5 (≈ 0.97 µM) | 0.5 (≈ 0.97 µM) |  |  |  |
| C[C@@](CCn1cnc2cc(-c3cc(F)ccc3F)ccc2c1=O)(C(=O)NO)S(C)(=O)=O [Example 7, (R)-4-(7-(2,5-difluorophenyl)-4-oxoquinazolin-3(4H)-yl)-N-hydroxy-2-methyl-2-(methylsulfonyl)butanamide] | 2 (≈ 4.43 µM) | 0.06 (≈ 0.133 µM) | 0.25 (≈ 0.554 µM) |  |  |  |
| COc1ccc(-c2ccc3c(=O)n(CC[C@](C)(C(=O)NO)S(C)(=O)=O)cc(F)c3c2)cc1 [Example 83, (2R)-4-[4-fluoro-6-(4-methoxyphenyl)-1-oxo-1,2-dihydroisoquinolin-2-yl]-N-hydroxy-2-methanesulfonyl-2-methylbutanamide] | 8 (≈ 17.3 µM) | < 0.03 | 0.25 (≈ 0.541 µM) |  |  |  |
| CCOc1ccc(-c2ccc3c(=O)n(CC[C@](C)(C(=O)NO)S(C)(=O)=O)cc(F)c3c2)cn1 [Example 86, (2R)-4-[6-(6-ethoxypyridin-3-yl)-4-fluoro-1-oxo-1,2-dihydroisoquinolin-2-yl]-N-hydroxy-2-methanesulfonyl-2-methylbutanamide] | 16 (≈ 33.5 µM) | < 0.03 | 0.25 (≈ 0.524 µM) |  |  |  |
| CN(C)c1ccc(-c2ccc3c(=O)n(CC[C@](C)(C(=O)NO)S(C)(=O)=O)cnc3c2)cc1 [Example 4, (R)-4-(7-(4-(dimethylamino)phenyl)-4-oxoquinazolin-3(4H)-yl)-N-hydroxy-2-methyl-2-(methylsulfonyl)butanamide Trifluoroacetic Acid Salt] |  |  |  | 8 | ≤ 0.03 | 0.25 |
| COc1ccc(-c2ccc3c(=O)n(CC[C@](C)(C(=O)NO)S(C)(=O)=O)cc(F)c3c2)cn1 [Example 87, (2R)-4-[4-fluoro-6-(6-methoxypyridin-3-yl)-1-oxo-1,2-dihdroisoquinolin-2-yl]-N-hydroxy-2-methanesulfonyl-2-methylbutanamide] | 8 (≈ 17.3 µM) | 0.06 (≈ 0.129 µM) | 0.25 (≈ 0.539 µM) |  |  |  |
| C[C@@](CCn1cnc2cc(-c3ccc(CCN4CCOCC4)cc3F)ccc2c1=O)(C(=O)NO)S(C)(=O)=O [Example 43, (2R)-4-(7-{2-fluoro-4-[2-(morpholin-4-yl)ethyl]phenyl}-4-oxo-3,4-dihydroquinazolin-3-yl)-N-hydroxy-2-methanesulfonyl-2-methylbutanamide] | 2 (≈ 3.66 µM) | 0.25 (≈ 0.457 µM) | 0.5 (≈ 0.915 µM) |  |  |  |
| COCCCN(C)Cc1ccc(-c2ccc3c(=O)n(CC[C@](C)(C(=O)NO)S(C)(=O)=O)ccc3c2)c(F)c1.Cl [Example 70, (2R)-4-[6-(2-fluoro-4-{[(3-methoxypropyl)(methyl)amino]methyl}phenyl)-1-oxo-1,2-dihydroisoquinolin-2-yl]-N-hydroxy-2-methanesulfonyl-2-methylbutanamide] | 2 | 0.125 | 0.25 |  |  |  |
